Common to all, as to format: functional
In assay [1] the test system is Candida albicans. Description: Antifungal activity against Candida albicans MTCC 227 after 48 hr by broth microdilution method. Particulars: MTCC 227, 48 h.
For assay [2], the system named is Streptococcus pneumoniae. Description: Antibacterial activity against Streptococcus pneumoniae MTCC 1936 after 24 hr by broth microdilution method. The conditions noted are these: MTCC 1936, 24 h.
The test system of assay [3] is Clostridium tetani. In words: Antibacterial activity against Clostridium tetani MTCC 449 after 24 hr by broth microdilution method. The conditions noted are these: MTCC 449, 24 h.
The test system of assay [4] is Salmonella typhi. Description: Antibacterial activity against Salmonella enterica subsp. enterica serovar Typhi MTCC 98 after 24 hr by broth microdilution method. Particulars: MTCC 98, 24 h.
Assay [5] relates to Escherichia coli. In words: Antibacterial activity against Escherichia coli MTCC 443 after 24 hr by broth microdilution method. Particulars: MTCC 443, 24 h.
Assay [6] concerns Bacillus subtilis. In words: Antibacterial activity against Bacillus subtilis MTCC 441 after 24 hr by broth microdilution method. Particulars: MTCC 441, 24 h.
Assay [7] relates to Vibrio cholerae. Description: Antibacterial activity against Vibrio cholerae MTCC 3906 after 24 hr by broth microdilution method. Particulars: MTCC 3906, 24 h.
In assay [8] the test system is Aspergillus fumigatus. Description: Antifungal activity against Aspergillus fumigatus MTCC 3008 after 48 hr by broth microdilution method. Particulars: MTCC 3008, 48 h.

Each structure is given as a SMILES string. Values after ≈ are worked out from the molar mass of the structure shown.

Take `Cc1ccc2nc(Sc3ccccc3)c(-c3c(C#N)c(N)nc(Sc4ccc(Cl)cc4)c3C#N)cc2c1`: the MIC was more than 1000 µg/mL in assay [1]; 500 µg/mL (≈ 933 µM) in assay [2]; 200 µg/mL (≈ 373 µM) in assay [3]; 100 µg/mL (≈ 187 µM) in assay [4]; 50 µg/mL (≈ 93.3 µM) in assay [5]; 500 µg/mL (≈ 933 µM) in assay [6]. The values for the MIC in assay [7] and in assay [8] were 200 µg/mL (≈ 373 µM) and 250 µg/mL (≈ 466 µM), respectively.

For the compound `Cc1ccc(Sc2nc(N)c(C#N)c(-c3cc4cc(C)ccc4nc3Sc3ccc(Cl)cc3)c2C#N)cc1`, the MIC in assay [1] is more than 1000 µg/mL; in assay [2], 100 µg/mL (≈ 182 µM); in assay [3] it was 250 µg/mL (≈ 454 µM); in assay [4] it was 200 µg/mL (≈ 364 µM); in assay [5] it was 200 µg/mL (≈ 364 µM); in assay [6] it was 100 µg/mL (≈ 182 µM). For the same compound, the MIC in assay [7] and in assay [8] was 250 µg/mL (≈ 454 µM) throughout.

The values are drawn from ChEMBL document CHEMBL3045635, “Synthesis and in vitro antimicrobial evaluation of novel 2-amino-6-(phenylthio)-4-(2-(phenylthio)quinolin-3-yl)pyridine-3,5-dicarbonitriles” (2013).
